From patent publication US7309491B2, “Heat shock protein-based vaccines and immunotherapies” (priority 2003, dated 2007)
Where “and” joins values, the source holds several entries; their conditions need not be identical. Identical values can stand only once. Like-named read-outs stand apart in the source and are kept apart here.

How the values were obtained:
[1] = target: recombinant human or murine heat shock protein 70 (hsp70); assay: Scatchard analysis of labeled reference hybrid antigen binding to hsp70; details: 39% PBS, 20 mM THAM pH 8, 37 mM NaCl, 5 mM MgCl2, 1 mM ADP
[2] = tested on: CD8+ T cells; type: in vivo, B6 mice
[3] = tested on: T cells of HHD II mice bearing human HLA-A2; details: mouse, in vivo
[4] = tested on: SIINFEKL-pulsed target cells; design: species or system mice; details: mouse, in vivo
[5] = tested on: modified to express ovalbumin (E.G7); design: species or system B6 mice; details: mouse, in vivo
[6] = tested on: B3Z cells; assay: in-vitro antigen presentation assay (IL-2 produced by B3Z cells); type: cell-based
From the text: The in-vitro antigen presentation assay described above was utilized further in order to evaluate the formulations of the invention.

[7] = target: recombinant human or murine heat shock protein 70 (hsp70); assay: hsp70 binding inhibition assay (Hill plots) relative to labeled reference hybrid antigen; details: read-out: Kd for hsp70 binding, antigenic domains alone
[8] = Ex. 17 prime-boost, doses as E100

Sequence: ALFDIESKVGSGHWDFAWPW
- Kd ([1]; fluoresceinated label): 10.8 µM
- Kd ([1]; tritiated label): 22.6 µM

Sequence: FFRKSIINFEKLFFRKRGYVYQGL [reference compound]
- Number of Spots per 300,000 cells: Medium control ([2]; mouse, in vivo): 1.7 ± 0.4
- Number of Spots per 300,000 cells: RGYVYQGL (SEQ ID NO:879) ([2]; mouse, in vivo): 31 ± 5.5
- Number of Spots per 300,000 cells: SIINFEKL (SEQ ID NO:868) ([2]; mouse, in vivo): 8.3 ± 1.1

Sequence: NLLRLTGWFFRKDAPIYTNV (SEQ ID NO:910) (Hybrid antigen)
- Number of Spots per 300,000 cells, Medium ([2]; mouse, in vivo): 0.7 ± 0.4 Spots per 300,000 cells
- Number of Spots per 300,000 cells, Response to Class I epitope when Class I and Class II hybrid antigen admixture is administered ([2]; mouse, in vivo): 13 ± 3.9 Spots per 300,000 cells
- Number of Spots per 300,000 cells, Response to Class I epitope when Class I hybrid antigen administered ([2]; mouse, in vivo): 2 ± 1.9 Spots per 300,000 cells
- Number of Spots per 300,000 cells, Splenocytes ([2]; mouse, in vivo): 0 ± 0 Spots per 300,000 cells

Sequence: NLLRLTGWFFRKFAPGNYPAL (SEQ ID NO:892) (Hybrid antigen)
- Number of Spots per 300,000 cells, FAPGNYPAL (SEQ ID NO:906) ([2]; mouse, in vivo): 4.3 ± 3.2 Spots per 300,000 cells
- Number of Spots per 300,000 cells, IAYFYPEL (SEQ ID NO:904) ([2]; mouse, in vivo): 0.3 ± 0.6 Spots per 300,000 cells
- Number of Spots per 300,000 cells, Medium ([2]; mouse, in vivo): 0 ± 0 Spots per 300,000 cells

Sequence: NLLRLTGWFFRKIAYFYPEL (SEQ ID NO:913) (Hybrid antigen)
- Number of Spots per 300,000 cells, Medium ([2]; mouse, in vivo): 0 ± 0 Spots per 300,000 cells
- Number of Spots per 300,000 cells, Response to Class I epitope when Class I and Class II hybrid antigen admixture is administered ([2]; mouse, in vivo): 73 ± 9.8 Spots per 300,000 cells
- Number of Spots per 300,000 cells, Response to Class I epitope when Class I hybrid antigen administered ([2]; mouse, in vivo): 11 ± 3 Spots per 300,000 cells
- Number of Spots per 300,000 cells, Splenocytes ([2]; mouse, in vivo): 0 ± 0 Spots per 300,000 cells

Sequence: NLLRLTGWFFRKIAYFYPELFFRKFAPGNYPAL
- Number of Spots per 300,000 cells: FAPGNYPAL (SEQ ID NO:891) ([2]; mouse, in vivo): 136 ± 6.6
- Number of Spots per 300,000 cells: IAYFYPEL (SEQ ID NO:904) ([2]; mouse, in vivo): 128 ± 9.2
- Number of Spots per 300,000 cells: RGYVYQGL (SEQ ID NO:879) ([2]; mouse, in vivo): 1.7 ± 0.8
- Number of Spots per 300,000 cells: SIINFEKL (SEQ ID NO:868) ([2]; mouse, in vivo): 1.7 ± 1.1

Sequence: NLLRLTGWFFRKIMDQVPFSV
- Number of Spots per 400,000 cells: IMD [3]: 27 ± 5.1 spots per 400,000 cells
- Number of Spots per 400,000 cells: Medium control [3]: 0.0 ± 0.0 spots per 400,000 cells
- Number of Spots per 400,000 cells: Unpulsed control [3]: 0.0 ± 0.0 spots per 400,000 cells
- Number of Spots per 400,000 cells: YMD control [3]: 2.0 ± 2.0 spots per 400,000 cells

Sequence: NLLRLTGWFFRKRTFSFQLI (SEQ ID NO:912) (Hybrid antigen)
- Number of Spots per 300,000 cells, Medium ([2]; mouse, in vivo): 0.3 ± 0.4 Spots per 300,000 cells
- Number of Spots per 300,000 cells, Response to Class I epitope when Class I and Class II hybrid antigen admixture is administered ([2]; mouse, in vivo): 43 ± 7.6 Spots per 300,000 cells
- Number of Spots per 300,000 cells, Response to Class I epitope when Class I hybrid antigen administered ([2]; mouse, in vivo): 5.3 ± 1.5 Spots per 300,000 cells
- Number of Spots per 300,000 cells, Splenocytes ([2]; mouse, in vivo): 0 ± 0 Spots per 300,000 cells

Sequence: NLLRLTGWFFRKSIINFEKL
- CTL assay: % killing at 200:1 E/T [4]: 9.91 ± 5.57%
- number of mice with tumors after 31 days [5]: Three of 10
- Number of Spots per 4 × 10^5 CD8 T cells: Con A Positive control ([2]; mouse, in vivo): 459 ± 149
- Number of Spots per 4 × 10^5 CD8 T cells: Medium control ([2]; mouse, in vivo): 1.00 ± 1.00
- Number of Spots per 4 × 10^5 CD8 T cells: SIINFEKL (SEQ ID NO:868) ([2]; mouse, in vivo): 151 ± 20.7
- Number of Spots per 4 × 10^5 CD8 T cells: Unpulsed control ([2]; mouse, in vivo): 1.67 ± 0.58
- Number of Spots per 4 × 10^5 CD8 T cells: VSV control ([2]; mouse, in vivo): 0.00 ± 0.00
- Number of Spots per 300,000 CD8 T cells: Con A positive control ([2]; mouse, in vivo): 688 ± 41.7
- Number of Spots per 300,000 CD8 T cells: Medium control ([2]; mouse, in vivo): 0.00 ± 0.00
- Number of Spots per 300,000 CD8 T cells: SIINFEKL (SEQ ID NO:868) ([2]; mouse, in vivo): 211 ± 17.0
- Number of Spots per 300,000 CD8 T cells: Unpulsed control ([2]; mouse, in vivo): 0.50 ± 0.71
- Number of Spots per 300,000 CD8 T cells: VSV control ([2]; mouse, in vivo): 1.00 ± 0.00
- Number of Spots per 300,000 cells: Medium ([2]; mouse, in vivo): 0 ± 0
- Number of Spots per 300,000 cells: Medium control ([2]; mouse, in vivo): 0.67 ± 0.82
- Number of Spots per 300,000 cells: SIINFEKL (SEQ ID NO:868) ([2]; mouse, in vivo): 109 ± 14
- Number of Spots per 300,000 cells: Unpulsed Splenocytes ([2]; mouse, in vivo): 3.0 ± 2.0
- Number of Spots per 300,000 cells: Unpulsed control ([2]; mouse, in vivo): 0 ± 0
- Number of Spots per 300,000 cells: VSV control ([2]; mouse, in vivo): 0.67 ± 0.82
- Number of Spots per 400,000 cells: Con A positive control ([2]; mouse, in vivo): 930 ± 23 spots per 400,000 cells and 1007 ± 17 spots per 400,000 cells and 906 ± 17 spots per 400,000 cells
- Number of Spots per 400,000 cells: Medium control ([2]; mouse, in vivo): 1.0 ± 1.7 spots per 400,000 cells and 2.0 ± 0.41 spots per 400,000 cells and 1.33 ± 0.41 spots per 400,000 cells
- number of spots per 400,000 cells; immunized day 0, analyzed day 7 ([2]; mouse, in vivo): 72 ± 5.0 spots per 400,000 cells
- number of spots per 400,000 cells; immunized day 0, analyzed day 21 ([2]; mouse, in vivo): 42 ± 7.0 spots per 400,000 cells
- number of spots per 400,000 cells; immunized day 0, analyzed day 28 ([2]; mouse, in vivo): 82 ± 11 spots per 400,000 cells
- number of spots per 400,000 cells; immunized days 0, 7, analyzed day 21 ([2]; mouse, in vivo): 24 ± 6.0 spots per 400,000 cells
- number of spots per 400,000 cells; immunized days 0, 14, analyzed day 28 ([2]; mouse, in vivo): 25 ± 9.0 spots per 400,000 cells
- Number of Spots per 300,000 cells: SIINFEKL ([2]; mouse, in vivo, sc): 11 ± 1.8
- Pg/ml IL-2 produced by B3Z cells [6]: 46 ± 11 pg/mL

Sequence: NLLRLTGWFFRKSSWDFITV (SEQ ID NO:911) (Hybrid antigen)
- Number of Spots per 300,000 cells, Medium ([2]; mouse, in vivo): 0.7 ± 0.8 Spots per 300,000 cells
- Number of Spots per 300,000 cells, Response to Class I epitope when Class I and Class II hybrid antigen admixture is administered ([2]; mouse, in vivo): 98 ± 5.8 Spots per 300,000 cells
- Number of Spots per 300,000 cells, Response to Class I epitope when Class I hybrid antigen administered ([2]; mouse, in vivo): 18 ± 0.7 Spots per 300,000 cells
- Number of Spots per 300,000 cells, Splenocytes ([2]; mouse, in vivo): 0.7 ± 0.4 Spots per 300,000 cells

Sequence: NLLRLTGWFRSIINFEKL
- Number of Spots per 300,000 cells: Medium ([2]; mouse, in vivo): 0.67 ± 0.58
- Number of Spots per 300,000 cells: SIINFEKL (SEQ ID NO:868) ([2]; mouse, in vivo): 12 ± 2
- Number of Spots per 300,000 cells: Unpulsed Splenocytes ([2]; mouse, in vivo): 0.67 ± 0.58
- Number of Spots per 400,000 cells: Medium control ([2]; mouse, in vivo): 1.0 ± 1.7 spots per 400,000 cells
- Number of Spots per 400,000 cells: Unpulsed control ([2]; mouse, in vivo): 0.0 ± 0.0 spots per 400,000 cells
- Number of spots per 400,000 cells: VSV control ([2]; mouse, in vivo): 0.67 ± 0.58 spots per 400,000 cells
- Number of spots per 400,000 cells: SIINFEKL (SEQ ID NO:868) ([2]; mouse, in vivo, sc): 31 ± 5.7 spots per 400,000 cells

Sequence: NLLRLTGWRKSIINFEKL
- CTL % killing at 200:1 E/T [4]: 24%
- Number of Spots per 400,000 cells: Con A positive control ([2]; mouse, in vivo): 842 ± 73 spots per 400,000 cells
- Number of Spots per 400,000 cells: Medium control ([2]; mouse, in vivo): 1.0 ± 1.0 spots per 400,000 cells
- Number of Spots per 400,000 cells: Unpulsed control ([2]; mouse, in vivo): 1.0 ± 1.0 spots per 400,000 cells
- Number of spots per 400,000 cells: SIINFEKL (SEQ ID NO:868) ([2]; mouse, in vivo): 24 ± 1 spots per 400,000 cells
- Number of spots per 400,000 cells: VSV control ([2]; mouse, in vivo): 5.0 ± 3.0 spots per 400,000 cells

Sequence: RGYVYQGL
- Kd [7]: 82 µM

Sequence: SIINFEKL [reference compound]
- CTL % killing at 200:1 E/T [4]: 6%
- Number of spots per 400,000 cells: SIINFEKL (SEQ ID NO:868) ([2]; Ex. 8 (200-17), B6 mice, no added hsp70, 10 μg SIINFEKL or 0.5 μg […]): 2.33 ± 0.41 spots per 400,000 cells
- Number of Spots per 400,000 cells: Con A positive control ([2]; Ex. 8 (200-17), doses as E40): 928 ± 72 spots per 400,000 cells
- Number of Spots per 400,000 cells: Medium control ([2]; Ex. 8 (200-17), doses as E40): 0.33 ± 0.41 spots per 400,000 cells
- Number of Spots per 400,000 cells: Unpulsed control ([2]; Ex. 8 (200-17), doses as E40): 1.33 ± 0.82 spots per 400,000 cells
- Number of spots per 400,000 cells: VSV control ([2]; Ex. 8 (200-17), doses as E40): 1.7 ± 0.41 spots per 400,000 cells
- Number of spots per 400,000 cells: VSV control ([2]; Ex. 9 (VSV-72-02), doses as E55): 1.0 ± 1.0 spots per 400,000 cells
- number of spots per 400,000 cells; immunized day 0, analyzed day 7 ([2]; Ex. 17 prime-boost, 2 μg hsp70, 2 μg hsp70 with 4 μg SIINFEKL or 4 μg hybrid antigen, 2 μg hybrid antigen alone, SIINFEKL dose not given): 3.0 ± 2.0 spots per 400,000 cells
- number of spots per 400,000 cells; immunized day 0, analyzed day 21 [2, 8]: 0.0 ± 1.0 spots per 400,000 cells
- number of spots per 400,000 cells; immunized day 0, analyzed day 28 [2, 8]: 1.0 ± 1.0 spots per 400,000 cells
- number of spots per 400,000 cells; immunized days 0, 7, analyzed day 21 [2, 8]: 2.0 ± 1.0 spots per 400,000 cells
- number of spots per 400,000 cells; immunized days 0, 14, analyzed day 28 [2, 8]: 1.0 ± 1.0 spots per 400,000 cells
- Number of Spots per 400,000 cells: Con A positive control ([2]; mouse, in vivo): 478 ± 67 spots per 400,000 cells
- Number of Spots per 400,000 cells: Medium control ([2]; mouse, in vivo): 0.0 ± 0.0 spots per 400,000 cells
- Number of Spots per 400,000 cells: Unpulsed control ([2]; mouse, in vivo): 0.0 ± 1.0 spots per 400,000 cells
- Number of spots per 400,000 cells: SIINFEKL (SEQ ID NO:868) ([2]; mouse, in vivo): 1.0 ± 1.0 spots per 400,000 cells
- Pg/ml IL-2 produced by B3Z cells ([6]; Ex. 12 (200-MF-41), 0.5 ng SIINFEKL, 5 ng […], 1.4 ug hsp70): 2690 ± 369 pg/mL
